Values after ≈ are worked out from the molar mass of the structure shown. Read-outs that look alike come from different tables or passages of the source.
What was measured:
Shigella sonnei IID 969 = assay: MIC, in vitro antibacterial activity (standard strains); assay type: cell-based; conditions: Shigella sonnei, IID969; 10^6 cells/ml; Gram -; read-out: MIC
Method: Minimal inhibitory concentrations (MICs) were determined in accordance with the method recommended by Japan Society of Chemotherapy.

[1] = tested on: Citrobacter freundii IID 976; assay: as above; assay type: cell-based; conditions: Citrobacter freundii, IID976
MR S. aureus KYB 623 = assay: Therapeutic efficacy against systemic infections in mice, MR S. aureus KYB 623; conditions: Staphylococcus aureus, in Mus musculus, po, 1 h
B. distasonis 8503 = assay: MIC, in vitro antibacterial activity (standard strains); assay type: cell-based; conditions: Parabacteroides distasonis, 8503
S. pneumoniae S-4288 = assay: Therapeutic efficacy against systemic infections in mice, S. pneumoniae S-4288; conditions: Streptococcus pneumoniae, S4288, in Mus musculus, po, 1 h
[2] = tested on: Bacteroides fragilis GM 7000; assay: MIC, in vitro antibacterial activity (standard strains); assay type: cell-based; conditions: Bacteroides fragilis, GM7000
C. ramosum = assay: as above; assay type: cell-based; conditions: Thomasclavelia ramosa
[3] = tested on: Morganella morganii IID 602; assay: as above; assay type: cell-based; conditions: Morganella morganii, IID602; 10^6 cells/ml; Gram -; read-out: MIC
K. pneumoniae 1-220S = assay: as above; assay type: cell-based, Klebsiella pneumoniae; conditions: Klebsiella pneumoniae, 1220S
B. fragilis 0558 = assay: as above; assay type: cell-based, Bacteroides fragilis; conditions: Bacteroides fragilis, 0558
Pst. micros UPI 5464-1 = assay: as above; assay type: cell-based; conditions: Parvimonas micra, UPI54641; 10^6 cells/ml; Gram +; read-out: MIC
E. coli ML 4707 [4] = assay: as above; assay type: cell-based, Escherichia coli; conditions: Escherichia coli, ML4707, 10^6 cells/ml, Gram -, Table 1
[5] = tested on: Proteus vulgaris IFO 3167; assay: as above; assay type: cell-based; conditions: Proteus vulgaris, IFO3167
E. coli ML 4707 [6] = assay: Therapeutic efficacy against systemic infections in mice, E. coli ML 4707; conditions: Escherichia coli, ML4707, in Mus musculus, po, 1 h
[7] = tested on: Bacillus subtilis PCI 219; assay: MIC, in vitro antibacterial activity (standard strains); assay type: cell-based; conditions: Bacillus subtilis, PCI219
B. fragilis 25285 = assay: as above; assay type: cell-based, Bacteroides fragilis; conditions: Bacteroides fragilis, 25285
[8] = tested on: Veillonella parvula KYA 10790; assay: as above; assay type: cell-based; conditions: Veillonella parvula, KYA10790; 10^6 cells/ml; Gram -; read-out: MIC
[9] = tested on: Pseudomonas aeruginosa V-1; assay: as above; assay type: cell-based; conditions: Pseudomonas aeruginosa, V1
[10] = tested on: S. aureus IID 670 (Terajima); assay: as above; assay type: cell-based, Staphylococcus aureus; conditions: Staphylococcus aureus, IID670
E. coli ATCC 10536 = assay: as above; assay type: cell-based, Escherichia coli; conditions: Escherichia coli, ATCC10536; 10^6 cells/ml; Gram -; read-out: MIC
[11] = tested on: Serratia marcescens IID 618; assay: as above; assay type: cell-based; conditions: Serratia marcescens, IID618; 10^6 cells/ml; Gram -; read-out: MIC
S. pneumoniae IID 552 = assay: as above; assay type: cell-based; conditions: Streptococcus pneumoniae, IID552; 10^6 cells/ml; Gram +; read-out: MIC
S. pyogenes IID 692 = assay: as above; assay type: cell-based, Streptococcus pyogenes; conditions: Streptococcus pyogenes, IID692; 10^6 cells/ml; Gram +; read-out: MIC
E. faecalis IID 682 = assay: as above; assay type: cell-based; conditions: Enterococcus faecalis, IID682
S. epidermidis IID 866 = assay: as above; assay type: cell-based; conditions: Staphylococcus epidermidis, IID866; 10^6 cells/ml; Gram +; read-out: MIC
[12] = tested on: Yersinia enterocolitica IID 981; assay: as above; assay type: cell-based; conditions: Yersinia enterocolitica, IID981; 10^6 cells/ml; Gram -; read-out: MIC
[13] = tested on: Clostridium difficile I-E; assay: as above; assay type: cell-based; conditions: Clostridioides difficile; 10^6 cells/ml; Gram +
P. maltophilia GIFU 2491 = assay: as above; assay type: cell-based; conditions: Stenotrophomonas maltophilia, GIFU2491; 10^6 cells/ml; Gram -; read-out: MIC
S. aureus Smith = assay: as above; assay type: cell-based, Staphylococcus aureus; conditions: Staphylococcus aureus; 10^6 cells/ml; Gram +; read-out: MIC
[14] = tested on: Enterobacter cloacae IID 977; assay: as above; assay type: cell-based; conditions: Enterobacter cloacae, IID977; 10^6 cells/ml; Gram -; read-out: MIC
[15] = tested on: Klebsiella pneumoniae KY(GN)6445; assay: as above; assay type: cell-based; conditions: Klebsiella pneumoniae; 10^6 cells/ml; Gram -; read-out: MIC
[16] = tested on: Salmonella enteritidis IID 604; assay: as above; assay type: cell-based; conditions: Salmonella enterica; 10^6 cells/ml; Gram -; read-out: MIC
[17] = tested on: Escherichia coli NIHJ JC-2; assay: as above; assay type: cell-based; conditions: Escherichia coli, NIHJJC2; 10^6 cells/ml; Gram -; read-out: MIC
P. aeruginosa IFO 12689 = assay: as above; assay type: cell-based, Pseudomonas aeruginosa; conditions: Pseudomonas aeruginosa, IFO12689; 10^6 cells/ml; Gram -; read-out: MIC
P. mirabilis IID 994 = assay: as above; assay type: cell-based; conditions: Proteus mirabilis, IID994; 10^6 cells/ml; Gram -; read-out: MIC
[18] = tested on: Streptococcus pyogenes (S-8); assay: as above; assay type: cell-based; conditions: Streptococcus pyogenes
[19] = tested on: Staphylococcus aureus 209 P; assay: as above; assay type: cell-based; conditions: Staphylococcus aureus, 209P; 10^6 cells/ml; Gram +; read-out: MIC
F. varium KYA 8501 = assay: as above; assay type: cell-based; conditions: Fusobacterium varium, KYA8501; 10^6 cells/ml; Gram -; read-out: MIC
[20] = tested on: Alcaligenes faecalis 0114002; assay: as above; assay type: cell-based; conditions: Alcaligenes faecalis, 0114002
P. aeruginosa IID 1210 = assay: as above; assay type: cell-based, Pseudomonas aeruginosa; conditions: Pseudomonas aeruginosa, IID1210; 10^6 cells/ml; Gram -; read-out: MIC
[21] = tested on: Acinetobacter anitratus IID 876; assay: as above; assay type: cell-based; conditions: Acinetobacter calcoaceticus, IID876
[22] = 10^6 cells/ml, Gram -, read-out: MIC
[23] = 10^6 cells/ml, Gram +, read-out: MIC

O=C(O)c1cn(C2CC2)c2cc(N3CCNCC3)c(F)cc2c1=O [CPFX, ciprofloxacin, reference compound]
MIC (Shigella sonnei IID 969): ≤ 0.0063 µg/mL
MIC [1]: ≤ 0.0063 µg/mL
ED50 (MR S. aureus KYB 623): 37 mg/kg
MIC (B. distasonis 8503): 6.25 µg/mL (≈ 18.9 µM)
ED50 (S. pneumoniae S-4288): > 100 mg/kg
MIC [2]: 3.13 µg/mL (≈ 9.45 µM)
MIC (C. ramosum): 6.25 µg/mL (≈ 18.9 µM)
MIC [3]: 0.05 µg/mL (≈ 0.151 µM)
MIC (K. pneumoniae 1-220S): 0.05 µg/mL (≈ 0.151 µM)
MIC (B. fragilis 0558): 3.13 µg/mL (≈ 9.45 µM)
MIC (Pst. micros UPI 5464-1): 0.2 µg/mL (≈ 0.604 µM)
MIC (E. coli ML 4707 [4]): ≤ 0.0063 µg/mL
MIC [5]: ≤ 0.0063 µg/mL
ED50 (E. coli ML 4707 [6]): 1.4 mg/kg
MIC [7]: 0.05 µg/mL (≈ 0.151 µM)
MIC (B. fragilis 25285): 6.25 µg/mL (≈ 18.9 µM)
MIC [8]: 0.2 µg/mL (≈ 0.604 µM)
MIC [9]: 0.2 µg/mL (≈ 0.604 µM)

CCn1cc(C(=O)O)c(=O)c2cc(F)c(N3CCNCC3)cc21 [NFLX, norfloxacin, reference compound]
MIC (Shigella sonnei IID 969): 0.05 µg/mL (≈ 0.157 µM)
MIC [1, 22]: 0.05 µg/mL (≈ 0.157 µM)
MIC [10]: 1.56 µg/mL (≈ 4.89 µM)
MIC (E. coli ATCC 10536): 0.05 µg/mL (≈ 0.157 µM)
MIC [11]: 0.05 µg/mL (≈ 0.157 µM)
MIC (S. pneumoniae IID 552): 3.13 µg/mL (≈ 9.8 µM)
MIC [2, 22]: 25 µg/mL (≈ 78.3 µM)
MIC (C. ramosum; [23]): 50 µg/mL (≈ 157 µM)
MIC (S. pyogenes IID 692): 3.13 µg/mL (≈ 9.8 µM)
MIC (E. faecalis IID 682): 1.56 µg/mL (≈ 4.89 µM)
MIC [3]: 0.05 µg/mL (≈ 0.157 µM)
MIC (K. pneumoniae 1-220S; [22]): 0.1 µg/mL (≈ 0.313 µM)
MIC (B. fragilis 0558; [22]): 25 µg/mL (≈ 78.3 µM)
MIC (S. epidermidis IID 866): 0.78 µg/mL (≈ 2.44 µM)
MIC [12]: 0.1 µg/mL (≈ 0.313 µM)
MIC [13]: 50 µg/mL
MIC (P. maltophilia GIFU 2491): 6.25 µg/mL (≈ 19.6 µM)
MIC (S. aureus Smith): 0.78 µg/mL (≈ 2.44 µM)
MIC [14]: 0.1 µg/mL (≈ 0.313 µM)
MIC [15]: 0.05 µg/mL (≈ 0.157 µM)
MIC [16]: 0.05 µg/mL (≈ 0.157 µM)
MIC [17]: 0.0563 µg/mL (≈ 0.176 µM)
MIC (P. aeruginosa IFO 12689): 0.78 µg/mL (≈ 2.44 µM)
MIC (P. mirabilis IID 994): 0.05 µg/mL (≈ 0.157 µM)
MIC (E. coli ML 4707 [4]; read-out: MIC): 0.05 µg/mL (≈ 0.157 µM)
MIC [18]: 1.56 µg/mL (≈ 4.89 µM)
MIC [5, 22]: 0.05 µg/mL (≈ 0.157 µM)
MIC [19]: 0.78 µg/mL (≈ 2.44 µM)
MIC (F. varium KYA 8501): 100 µg/mL (≈ 313 µM)
MIC [20]: 1.56 µg/mL (≈ 4.89 µM)
MIC [7, 23]: 0.1 µg/mL (≈ 0.313 µM)
MIC (B. fragilis 25285; [22]): 25 µg/mL (≈ 78.3 µM)
MIC (P. aeruginosa IID 1210): 3.13 µg/mL (≈ 9.8 µM)
MIC [21]: 1.56 µg/mL (≈ 4.89 µM)
MIC [9, 22]: 0.39 µg/mL (≈ 1.22 µM)

— US4753953A, “Pyridonecarboxylic acid derivatives and antibacterial pharmaceutical compositions thereof” (priority 1985, dated 1988)
